Results published in patent US11053235B2, “Substituted 1,4-dihydropyrimidines for the treatment of HBV infection or HBV-induced diseases” (Janssen Sciences Ireland Unlimited Company, priority 2018, dated 2021).
Where two headings read alike, the source gives them in different places.

Assays:
HBV = assay: Anti-viral assay in HepG2.2.15 cells: HBV inhibitory activity (HBV DNA in culture medium by q-PCR); type: cell-based; conditions: HepG2.2.15 cells, 6 days treatment, HBV DNA in culture medium by q-PCR, highest concentration 10 uM, read-out: EC50
Description: (§1) Example 2: Anti-Viral Assay in HepG2.2.15 Cells
(§2) 1.1. Cell Line • HepG2.2.15 (the HepG2.2.15 cell line can be produced by transfection of the HepG2 cell line as described in Sells, Chen, and Acs 1987 (Proc. Natl. Acad. Sci. USA 84:1005-1009), and the HepG2 cell line is available from ATCC® under number HB-8065™). Reagents • DMEM/F12 (INVITROGEN-11330032) • FBS (GIBCO-10099-141) • Dimethyl sulfoxide(DMSO) (SIGMA-D2650) • Penicillin-streptomycin solution (HYCLONE-SV30010) • NEAA (INVITROGEN-1114050) • L-Glutamine (INVITROGEN-25030081) • Geneticin Selective Antibiotic (G418, 500 mg/ml) (INVITROGEN-10131027) • Trypsinase digestion solution (INVITROGEN-25300062) • CCK8 (BIOLOTE-35004) • QIAamp 96 DNA Blood Kit (12) (QIAGEN-51162) • FastStart Universal Probe Mast Mix (ROCHE-04914058001)
(§3) 2.1. HBV Inhibitory Activity and Cytotoxicity Determination
(§4) Seed the cell HepG2.2.15 cells into 96-well plate in 2% FBS culture medium at the density of 40,000 cells/well and 5,000 cells/well for HBV inhibitory activity and cytotoxicity determination, respectively. After seeding, incubate the cell plates at 37° C., 5% CO2 overnight. The next day, medium containing compounds is added to the cell to treat the cells for 6 days with medium refreshed once in the middle of the treatment. 8 dose points with 3 folds dilution of each compound were adopted and the highest concentration of the compounds is 10 uM and 100 uM for HBV inhibitory activity and cytotoxicity determination, respectively.
The HBV DAN change in the cell culture medium induced by the compounds is measured by q-PCR method. Briefly, the HBV DNA in the culture medium is extracted using QIAamp 96 DNA Blood Kit according to the manual and then quantified by q-PCR using the primers and probe in the table below.
(§5) EC50 and CC50 values are calculated by the GRAPHPAD PRISM software.

[1] = Cytotoxicity determination in HepG2.2.15 cells (CCK-8); type: cell-based; conditions: human, 6 days treatment, CCK-8, highest concentration 100 uM
Description: as §1, §2, §3, §4
After 6 days of compounds treatment, add 20 μl CCK-8 reagents to each well of cytotoxicity assay plates, incubate the plate at 37° C., 5% CO2 for 2.5 h and measure the absorbance at 450 nm wavelength, at the same time read the absorbance at 630 nm wavelength as reference.
as §5

[2] = Hepatitis B virus, HepG2.2.15, 144 h

| SMILES | EC50 (HBV; [2]) [nM] | CC50 at 6 days [1] [µM] | EC50 (HBV) [nM] |
| --- | --- | --- | --- |
| CCOC(=O)C1=C([C@H]2CC[C@H](c3nc(CCC(=O)O)co3)CC2)NC(c2nccs2)=NC1c1ccc(F)c(F)c1Cl (relative stereo) [Compound I-24, (trans)-3-(2-(4-(6-(2-Chloro-3,4-difluorophenyl)-5-(ethoxycarbonyl)-2-(thiazol-2-yl)-3,6-dihydropyrimidin-4-yl)cyclohexyl)oxazol-4-yl)propanoic acid] | 12 | 7.55 | – |
| COC(=O)C1=C([C@H]2CC[C@H](c3nc(C(=O)O)co3)CC2)NC(c2nccs2)=NC1c1ccc(F)c(F)c1Cl (single isomer, unassigned) [Compound I-1-C, (trans)-2-(4-(6-(2-Chloro-3,4-difluorophenyl)-5-(methoxycarbonyl)-2-(thiazol-2-yl)-3,6-dihydropyrimidin-4-yl)cyclohexyl)oxazole-4-carboxylic Acid] | 7.5 | 13.6 | – |
| CCOC(=O)C1=C([C@H]2CC[C@H](c3nc(C(=O)O)co3)CC2)NC(c2nccs2)=NC1c1ccc(F)c(F)c1Cl (single isomer, unassigned) [Compound I-2-D, (trans)-2-(4-(6-(2-Chloro-3,4-difluorophenyl)-5-(ethoxycarbonyl)-2-(thiazol-2-yl)-3,6-dihydropyrimidin-4-yl)cyclohexyl)oxazole-4-carboxylic Acid] | 6 | 9.37 | – |
| COC(=O)C1=C([C@H]2CC[C@H](c3nc(C(=O)O)co3)CC2)NC(c2nccs2)=NC1c1cccc(F)c1C (single isomer, unassigned) [Compound I-3-D, trans-2-(4-(6-(3-Fluoro-2-methylphenyl)-5-(methoxycarbonyl)-2-(thiazol-2-yl)-3,6-dihydropyrimidin-4-yl)cyclohexyl)oxazole-4-carboxylic Acid] | 140 | 14.2 | – |
| COC(=O)C1=C([C@H]2CC[C@H](c3nc(C(=O)O)co3)CC2)NC(c2nccs2)=NC1c1ccc(F)cc1Cl (single isomer, unassigned) [Compound I-4-B, (trans)-2-(4-(6-(2-Chloro-4-fluorophenyl)-5-(methoxycarbonyl)-2-(thiazol-2-yl)-3,6-dihydropyrimidin-4-yl)cyclohexyl)oxazole-4-carboxylic Acid] | 11 | 16.4 | – |
| COC(=O)C1=C([C@H]2CC[C@H](c3nc(C(=O)O)co3)CC2)NC(c2nccs2)=NC1c1cccc(F)c1Cl (single isomer, unassigned) [Compound I-5-B, (trans)-2-(4-(6-(2-Chloro-3-fluorophenyl)-5-(methoxycarbonyl)-2-(thiazol-2-yl)-3,6-dihydropyrimidin-4-yl)cyclohexyl)oxazole-4-carboxylic Acid] | 60 | 19.3 | – |
| COC(=O)C1=C([C@H]2CC[C@H](c3nc(C(=O)O)co3)CC2)NC(c2nccs2)=NC1c1ccc(F)cc1C (single isomer, unassigned) [Compound I-6-B, (trans)-2-(4-(6-(4-Fluoro-2-methylphenyl)-5-(methoxycarbonyl)-2-(thiazol-2-yl)-3,6-dihydropyrimidin-4-yl)cyclohexyl)oxazole-4-carboxylic Acid] | 72 | 17.4 | – |
| COC(=O)C1=C([C@H]2CC[C@H](c3nc(C(=O)O)co3)CC2)NC(c2ncc(F)cc2F)=NC1c1ccc(F)c(F)c1Cl (single isomer, unassigned) [Compound I-7-B, (trans)-2-(4-(6-(2-chloro-3,4-difluorophenyl)-2-(3,5-difluoropyridin-2-yl)-5-(methoxycarbonyl)-3,6-dihydropyrimidin-4-yl)cyclohexyl)oxazole-4-carboxylic acid] | 24 | 14.3 | – |
| COC(=O)C1=C(C23CC(c4nc(C(=O)O)co4)(C2)C3)NC(c2nccs2)=NC1c1ccc(F)c(F)c1Cl (single isomer, unassigned) [Compound I-8-B, 2-(3-(6-(2-Chloro-3,4-difluorophenyl)-5-(methoxycarbonyl)-2-(thiazol-2-yl)-3,6-dihydropyrimidin-4-yl)bicyclo[1.1.1]pentan-1-yl)oxazole-4-carboxylic Acid] | 51 | 26.6 | – |
| CCOC(=O)C1=C([C@H]2CC[C@H](c3nc(C(=O)O)co3)CC2)NC(c2nccs2)=NC1c1cccc(F)c1Cl (single isomer, unassigned) [Compound I-9-B, (trans)-2-(4-(6-(2-chloro-3-fluorophenyl)-5-(ethoxycarbonyl)-2-(thiazol-2-yl)-3,6-dihydropyrimidin-4-yl)cyclohexyl)oxazole-4-carboxylic Acid] | 25 | 12.3 | – |
| CCOC(=O)C1=C([C@H]2CC[C@H](c3nc(C(=O)O)co3)CC2)NC(c2nccs2)=NC1c1ccc(F)cc1Cl (single isomer, unassigned) [Compound I-10-C, (trans)-2-(4-(6-(2-Chloro-4-fluorophenyl)-5-(ethoxycarbonyl)-2-(thiazol-2-yl)-3,6-dihydropyrimidin-4-yl)cyclohexyl)oxazole-4-carboxylic Acid] | 22 | 7.64 | – |
| CCOC(=O)C1=C([C@H]2CC[C@H](c3nc(C(=O)O)co3)CC2)NC(c2nccs2)=NC1c1cccc(F)c1C (single isomer, unassigned) [Compound I-11-B, (trans)-2-(4-(5-(Ethoxycarbonyl)-6-(3-fluoro-2-methylphenyl)-2-(thiazol-2-yl)-3,6-dihydropyrimidin-4-yl)cyclohexyl)oxazole-4-carboxylic Acid] | 37 | 12.1 | – |
| CCOC(=O)C1=C([C@H]2CC[C@H](c3nc(C(=O)O)co3)CC2)NC(c2nccs2)=NC1c1ccc(F)cc1C (single isomer, unassigned) [Compound I-12-C, (trans)-2-(4-(5-(Ethoxycarbonyl)-6-(4-fluoro-2-methylphenyl)-2-(thiazol-2-yl)-3,6-dihydropyrimidin-4-yl)cyclohexyl)oxazole-4-carboxylic Acid] | 36 | 11.1 | – |
| CCOC(=O)C1=C(C2CC=C(c3nc(C(=O)O)co3)CC2)NC(c2nccs2)=NC1c1ccc(F)c(F)c1Cl (single isomer, unassigned) [Compound I-13-C, 2-(4-(6-(2-chloro-3,4-difluorophenyl)-5-(ethoxycarbonyl)-2-(thiazol-2-yl)-3,6-dihydropyrimidin-4-yl)cyclohex-1-en-1-yl)oxazole-4-carboxylic Acid] | – | 5.61 | 6.5 |
| CCOC(=O)C1=C([C@H]2CC[C@H](c3nc(C(=O)O)c(C)o3)CC2)NC(c2nccs2)=NC1c1ccc(F)c(F)c1Cl (single isomer, unassigned) [Compound I-14-B, (trans)-2-(4-(6-(2-Chloro-3,4-difluorophenyl)-5-(ethoxycarbonyl)-2-(thiazol-2-yl)-3,6-dihydropyrimidin-4-yl)cyclohexyl)-5-methyloxazole-4-carboxylic Acid] | 4.7 | 3.72 | – |
| CCOC(=O)C1=C([C@H]2CC[C@H](Cc3nc(C(=O)O)co3)CC2)NC(c2nccs2)=NC1c1ccc(F)c(F)c1Cl (single isomer, unassigned) [Compound I-15-A, (trans)-2-((4-(6-(2-chloro-3,4-difluorophenyl)-5-(ethoxycarbonyl)-2-(thiazol-2-yl)-3,6-dihydropyrimidin-4-yl)cyclohexyl)methyl)oxazole-4-carboxylic Acid] | 66 | 6.27 | – |
| COC(=O)C1=C([C@H]2CC[C@H](c3nc(CC(=O)O)co3)CC2)NC(c2nccs2)=NC1c1ccc(F)c(F)c1Cl (single isomer, unassigned) [Compound I-16-B, (trans)-2-(2-(4-(6-(2-Chloro-3,4-difluorophenyl)-5-(methoxycarbonyl)-2-(thiazol-2-yl)-3,6-dihydropyrimidin-4-yl)cyclohexyl)oxazol-4-yl)acetic Acid] | 4.8 | 12.4 | – |
| CCOC(=O)Cc1coc([C@H]2CC[C@H](C3=C(C(=O)OCC)C(c4ccc(F)c(F)c4Cl)N=C(c4nccs4)N3)CC2)n1 (single isomer, unassigned) [VII-23-Y, (trans)-Ethyl 4-(2-chloro-3,4-difluorophenyl)-(4-(4-(2-ethoxy-2-oxoethyl)oxazol-2-yl)cyclohexyl)-2-(thiazol-2-yl)-1,4-dihydropyrimidine-5-carboxylate] | 23 | – | – |
